From PMC7060200, “Selective Binding of HSC70 and its Co-Chaperones to Structural Hotspots on CFTR” (Scientific Reports, 2020) come the findings set out here.

Entries after “also recorded” stand apart in the source; their conditions may differ. Ends that are not written are not given here. Peptide text beside a SMILES is read from it.

Test [1] concerns the target T1, HSC70 (Homo sapiens, UniProt P11142).
T1 construct: made in house
Nature of the test: Competition ELISA: soluble peptide vs HSC70 binding to immobilized 1097-L. As to conditions: for HSC70 binding site by competition screen (in words): 1 μM HSC70, 100 μM soluble peptide, Fig. 3c/5, cutoff twice SD of 733-L, n ≥ 4; for competition of HSC70 binding to immobilized 1097-L (in words): 1 μM HSC70, soluble peptide up to 100 μM; for Kd: read-out: Kd from competition curves, HSC70. As for the experimental part:
(§1) HSC70, DJA1 and DJA2 were purified as His-tagged proteins, as described. HSC70 was also amplified by PCR with an N-terminal FLAG tag, inserted into pPROEXHTa (Invitrogen) and purified as described. HSC70 was stored in 100 mM KOAc, 20 mM HEPES-KOH pH 7.5, 5 mM MgOAC2 (buffer G), DJA1 and DJA2 in 500 mM NaCl, 20 mM HEPES-KOH pH 7.5, 5 mM MgOAC2 (buffer H). Avi-tagged CFTR NBD1 was purified as described.
(§2) The CFTR peptide library was designed as 15-mers with 10-residue overlaps covering the cytosolic sequences as in Fig. 1a and Supplemental Table S1. Synthetic peptides (Mimotopes, PepSet purity) contained an N-terminal biotin followed by linker sequence GSGS and the 15-mer sequence. […] Peptides were reconstituted in DMSO or water.
(§3) For peptide binding, streptavidin-coated black 96-well plates (Nunc Maxisorp, ThermoFisher) were pre-rinsed with PBS containing 0.05% Tween-20 (PBST), and 5 µM biotinylated peptides in 100 µl PBS were bound overnnight at 4 °C with agitation. Plates were washed with PBST and blocked with PBST containing 0.5% bovine serum albumin (BSA) for 1 h. After removal of blocking solution, 100 µl reactions containing chaperones at indicated concentrations were bound for 45 min at room temperature with agitation. HSC70 reactions were in buffer G containing 1 mM ATP, DJA1 and DJA2 reactions were in buffer H. For competition assays, chaperones and peptides were mixed at indicated concentrations immediately before the reactions were added to the plates. For detections, the plates were washed in PBST and 5 μM His-Probe-HRP conjugate (ThermoFisher) in 100 μL PBST added for 15 min with agitation. After washing in PBST, plates were developed using Amplex Red (ThermoFisher) according to manufacturer’s instructions, in a fluorescence plate reader (Tecan M1000).
(§4) Affinities were determined separately from binding curves and from competition curves. Data from binding of chaperones to immobilized peptides (Fig. 2a,b and Supplemental Fig. S2a–c) were fit to the equation 1/(1 − i) = (C/i)/Kd^B − b, where i is the relative saturation, C is the chaperone concentration (1 μM), Kd^B is the apparent dissociation constant from the binding data. In the plot of 1/(1 − i) against (C/i), the slope is 1/Kd^B, and −b is the intercept. […] In the plot of bi + (C/Kd^B)/i over D, the slope is 1/Kd^C, and e is the intercept. The amount of chaperone bound in the absence of competitor was set as i = 1.
(§5) Established statistical methods[71]–[73] were used to analyze the data for chaperone binding to the peptide library. First, biological and statistical outliers were identified with the Tukey method in two rounds, for biological and then statistical outliers. […] Binding data were represented as multiples of the standard deviations from the normal means. Binding in the presence of competitor peptides were shown as a fraction of binding in the absence of competitor, or the fraction competed calculated as 1 – fraction bound. Values were compared using a two-tailed unpaired Student’s t-test assuming unequal variance.
(An ELISA detects its analyte on a solid surface through an enzyme-linked reagent.)

Test [2] concerns HSC70 and DJA2. Nature of the test: Refolding of guanidine denatured luciferase by HSC70 and DJA2. As to conditions: 4 μM each HSC70 and DJA2, 100 nM luciferase, 100 μM peptide (25-fold excess), 60 min, % of control without peptide; n = 3. It is filed as biochemical. The method, then: Refolding of guanidine denatured luciferase with HSC70 and DJA2 was as described. […] To monitor refolding, luciferase activity was measured in a luminometer (Berthold Sirius) with the luciferase assay kit (Promega). For co-IPs, 20 μL reaction aliquots were stopped by dilution at 4 °C to 500 μL with buffer containing 0.1% Triton X-100, 0.2% BSA and 0.04 mg/mL apyrase (Sigma). Reactions were incubated with FLAG-M2 magnetic beads (Sigma) for 1 h at 4 °C with agitation, then beads were isolated and washed with buffer G containing 0.1% Triton X-100, and eluted with 40 μL of 1 μg/mL FLAG peptide in the same buffer. Samples were analyzed on Western blots detected with antibodies against luciferase (Sigma, L2164) and the FLAG-M2 tag (Sigma, F1804).

Test [3] addresses T2, DJA1 (Homo sapiens, UniProt P31689).
T2 construct: made in house
Nature of the test: Competition ELISA: soluble peptide vs DJA1 binding to immobilized 1097-L. As to conditions: for DJA1 binding site by competition screen (in words): 1 μM DJA1, 100 μM soluble peptide, Fig. 3c/5, cutoff twice SD of 733-L, n ≥ 4; for competition of DJA1 binding to immobilized 1097-L (in words): 1 μM DJA1, soluble peptide up to 100 μM. As for the experimental part:
as §1, §2, §3, §4, §5

Test [4] addresses T1, HSC70. Nature of the test: ELISA binding of HSC70 to immobilized CFTR NBD1 and competition by soluble peptides. To be noted: 1 μM HSC70, with ATP, soluble peptide, Fig. 4a; n = 5. The method, then:
as §1
For NBD1 binding, 100 nM of strep-tagged NBD1 in 100 µl of 150 mM NaCl, 50 mM Na2HPO4 pH 7.5, 1 mM ATP, and 40 µM DTT (buffer N), was bound to streptavidin plates for 1 hour at 4 °C with agitation. Plates were washed with PBST and incubated in buffer N at 30 °C in a water bath for 5 min. Then, plates were blocked in PBST containing 0.5% BSA, followed by the addition of HSC70 binding reactions, and detection as above.

Test [5] has as its target T3, DJA2 (Homo sapiens, UniProt O60884).
T3 construct: made in house
Nature of the test: Competition ELISA: soluble peptide vs DJA2 binding to immobilized 1097-L. To be noted: for DJA2 binding site by competition screen (in words): 1 μM DJA2, 100 μM soluble peptide, Fig. 3c/5, cutoff twice SD of 733-L, n ≥ 4; for competition of DJA2 binding to immobilized 1097-L (in words): 1 μM DJA2, soluble peptide up to 100 μM. The method, then:
as §1, §2, §3, §4, §5

Test [6] deals with T2, DJA1. Briefly: ELISA binding of DJA1 to immobilized biotinylated CFTR peptides. As for the experimental part: as §1, §2, §3, §4, §5
Test [7] addresses T3, DJA2. Briefly: ELISA binding of DJA2 to immobilized biotinylated CFTR peptides. As for the experimental part:
as §1, §2, §3, §4, §5

The target of test [8] is T1, HSC70. Briefly: ELISA binding of HSC70 to immobilized biotinylated CFTR peptides. The method, then:
as §1, §2, §3, §4, §5

T2 sequence (P31689 whole entry): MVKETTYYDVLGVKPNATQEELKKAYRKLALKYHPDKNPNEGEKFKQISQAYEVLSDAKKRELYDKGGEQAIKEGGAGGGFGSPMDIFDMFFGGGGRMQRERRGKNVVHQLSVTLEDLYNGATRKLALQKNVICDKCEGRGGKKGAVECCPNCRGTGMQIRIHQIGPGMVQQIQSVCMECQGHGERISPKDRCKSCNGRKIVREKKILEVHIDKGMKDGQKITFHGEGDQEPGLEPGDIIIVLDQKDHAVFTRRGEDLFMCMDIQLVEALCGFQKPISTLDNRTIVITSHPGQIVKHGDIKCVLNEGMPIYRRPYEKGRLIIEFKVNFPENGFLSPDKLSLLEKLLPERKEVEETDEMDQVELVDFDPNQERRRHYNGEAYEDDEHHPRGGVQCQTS
T3 sequence (O60884 whole entry): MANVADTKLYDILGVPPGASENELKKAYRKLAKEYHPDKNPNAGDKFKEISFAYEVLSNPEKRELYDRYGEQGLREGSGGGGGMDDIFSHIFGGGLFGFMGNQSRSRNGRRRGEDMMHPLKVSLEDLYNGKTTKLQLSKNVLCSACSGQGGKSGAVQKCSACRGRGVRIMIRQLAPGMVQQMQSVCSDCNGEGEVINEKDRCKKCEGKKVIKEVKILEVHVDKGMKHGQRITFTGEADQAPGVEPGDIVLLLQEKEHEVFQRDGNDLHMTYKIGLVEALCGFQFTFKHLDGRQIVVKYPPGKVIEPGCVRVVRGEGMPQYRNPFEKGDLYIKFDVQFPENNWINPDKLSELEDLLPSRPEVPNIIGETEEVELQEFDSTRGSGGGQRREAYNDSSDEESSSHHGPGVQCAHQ
T1 sequence (P11142 whole entry): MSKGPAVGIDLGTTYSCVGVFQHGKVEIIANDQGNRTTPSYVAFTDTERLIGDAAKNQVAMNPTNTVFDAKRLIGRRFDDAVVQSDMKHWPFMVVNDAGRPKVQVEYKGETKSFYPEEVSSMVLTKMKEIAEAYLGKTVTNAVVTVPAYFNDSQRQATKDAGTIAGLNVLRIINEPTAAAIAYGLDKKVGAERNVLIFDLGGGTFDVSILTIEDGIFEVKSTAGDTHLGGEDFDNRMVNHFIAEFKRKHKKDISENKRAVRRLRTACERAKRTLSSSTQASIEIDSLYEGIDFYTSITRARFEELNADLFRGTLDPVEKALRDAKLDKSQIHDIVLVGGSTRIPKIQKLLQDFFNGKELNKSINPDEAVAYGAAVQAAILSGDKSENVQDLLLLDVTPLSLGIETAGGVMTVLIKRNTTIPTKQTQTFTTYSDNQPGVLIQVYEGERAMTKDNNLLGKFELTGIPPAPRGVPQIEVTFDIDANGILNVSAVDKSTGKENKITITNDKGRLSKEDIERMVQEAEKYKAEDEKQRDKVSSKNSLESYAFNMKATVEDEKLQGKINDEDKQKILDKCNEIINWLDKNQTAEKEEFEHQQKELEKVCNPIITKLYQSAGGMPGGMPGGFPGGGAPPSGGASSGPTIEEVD

Take DKILILHEG [Peptide 618-S]: in test [1], the “HSC70 binding site by competition screen (in words)” value (shortened to “HSC70 binding site”) is “bound by HSC70, DJA2 and DJA1”; the “competition of HSC70 binding to immobilized 1097-L (in words)” value was “competed HSC70 well”. For the same molecule, the “effect on luciferase refolding (in words)” value in test [2] is given as “partial but still significant”. Besides, the “DJA1 binding site by competition screen (in words)” value in test [3] is “bound by HSC70, DJA2 and DJA1”. Besides, the “competition of HSC70 binding to immobilized NBD1 (in words)” value in test [4] is recorded as “competed the majority of HSC70”. Further, in test [5], the “DJA2 binding site by competition screen (in words)” value (“DJA2 binding site” below) is “bound by HSC70, DJA2 and DJA1”.
What is called Kd is the free concentration of one partner at which half of the binding sites on the other are occupied at equilibrium, for simple one-to-one binding. On to FLYLSTLRWFQMRIE [Peptide 1097-L], for which the “binding in peptide library screen, DJA1 (in words)” value in test [6] (2 μM DJA1, absence of ATP, immobilized 15-mer, n ≥ 3) is listed as “most consistently bound by all three chaperones”. Moreover, the “titration binding / saturation, DJA1 (in words)” value in test [6] (DJA1 titrated to 1.5 μM on immobilized peptide, Fig. 2b, S2b, n = 3) is “at or close to saturation above 1 μM; also recorded: higher than to the other peptides”. Moreover, the dissociation constant Kd came out at 167 nM in test [6] (immobilized peptide (biotin-GSGS-15-mer), DJA1 titrated in buffer H pH 7.5, no nucleotide, 45 min, room temperature, n = 3, read-out: Kd from binding curves, DJA1); 602 nM in test [1]; 2430 nM in test [3] (read-out: Kd from competition curves, DJA1); 75 nM in test [7] (immobilized peptide (biotin-GSGS-15-mer), DJA2 titrated in buffer H pH 7.5, no nucleotide, 45 min, room temperature, n = 3, read-out: Kd from binding curves, DJA2); 58 nM in test [8] (immobilized peptide (biotin-GSGS-15-mer), HSC70 titrated in buffer G pH 7.5 + 1 mM ATP, 45 min, room temperature, n ≥ 6, read-out: Kd from binding curves, HSC70); 585 nM in test [5] (read-out: Kd from competition curves, DJA2). In addition, the “competition of HSC70 binding to immobilized 1097-L (in words)” value in test [1] is “Strong, essentially saturating competition”. The “effect on luciferase refolding (in words)” value in test [2] is on record as “blocked refolding entirely”. In addition, the “competition of DJA1 binding to immobilized 1097-L (in words)” value in test [3] is reported as “similarly competed”. For the same molecule, in test [7] (2 μM DJA2, absence of ATP, immobilized 15-mer, n ≥ 3), the “binding in peptide library screen, DJA2 (in words)” value is listed as “most consistently bound by all three chaperones”. The “titration binding / saturation, DJA2 (in words)” value in test [7] (DJA2 titrated to 1.5 μM on immobilized peptide, Fig. 2b, S2c, n = 3) was “at or close to saturation above 1 μM; also recorded: higher than to the other peptides”. In addition, the “HSC70 binding in ATP compared with ADP or no nucleotide” value in test [8] (1 μM HSC70, immobilized 1097-L, Fig. S1a, n ≥ 4) is on record as “somewhat lower than in ADP or the absence of nucleotide”. The “binding in peptide library screen, HSC70 (in words)” value in test [8] (2 μM HSC70, with ATP, immobilized 15-mer, n ≥ 3) is listed as “most consistently bound by all three chaperones”. For the same molecule, the “titration binding / saturation, HSC70 (in words)” value in test [8] (HSC70 titrated to 1.5 μM on immobilized peptide, Fig. 2a, S2a, n ≥ 6) was “higher than to the other peptides”. Besides, the “HSC70 concentration at which binding reached saturation” value in test [8] (titration on immobilized peptide, Fig. 2a, n ≥ 6) is given as “around 1 μM”. Also, the “competition of DJA2 binding to immobilized 1097-L (in words)” value (“competition of DJA2 binding” for short) in test [5] is listed as “similarly competed”.
Turning to `CC[C@H](C)[C@H](NC(=O)[C@@H](NC(=O)[C@@H](NC(=O)[C@H](CS)NC(=O)[C@@H](N)CC(=O)O)[C@@H](C)O)C(C)C)C(=O)N[C@@H](CC(C)C)C(=O)N[C@@H](CS)C(=O)N[C@@H](CCC(=O)O)C(=O)N[C@@H](Cc1c[nH]cn1)C(=O)O` [Peptide 1398-S] (H-DCTVILCEH-OH; N-terminus and C-terminus assumed), in test [1], the “HSC70 binding site” value was “bound by HSC70, DJA2 and DJA1”; the “competition of HSC70 binding to immobilized 1097-L (in words)” value is given as “competed”. Besides, the “effect on luciferase refolding (in words)” value in test [2] is “inhibited refolding”. Further, in test [3], the “DJA1 binding site by competition screen (in words)” value is “bound by HSC70, DJA2 and DJA1”; the “competition of DJA1 binding to immobilized 1097-L (in words)” value is “competed”. Moreover, the “competition of HSC70 binding to immobilized NBD1 (in words)” value in test [4] was “effective competitors”. For the same molecule, in test [5], the “DJA2 binding site” value is “bound by HSC70, DJA2 and DJA1”; the “competition of DJA2 binding” value is given as “competed”.
Turning to TSLLMVIMG [Peptide 469-S], in test [1], the “HSC70 binding site” value was “HSC70-DJA2 sites” and the “competition of HSC70 binding to immobilized 1097-L (in words)” value is “competed HSC70 well”. The “effect on luciferase refolding (in words)” value in test [2] is “inhibited refolding”. The “competition of HSC70 binding to immobilized NBD1 (in words)” value in test [4] is “competed the majority of HSC70”. For the same molecule, in test [5], the “DJA2 binding site” value is on record as “HSC70-DJA2 sites” and the “competition of DJA2 binding” value is recorded as “competed”.
Turning to QKVFIFSGTF [Peptide 1295-S], in test [1], the “HSC70 binding site” value is listed as “HSC70-DJA2 sites”, the “competition of HSC70 binding to immobilized 1097-L (in words)” value is “competed” and the Kd came out at 1260 nM. Also, the “effect on luciferase refolding (in words)” value in test [2] is “partial but still significant”. Also, the “competition of HSC70 binding to immobilized NBD1 (in words)” value in test [4] is on record as “effective competitors”. For the same molecule, the “DJA2 binding site” value in test [5] is “HSC70-DJA2 sites”.
